A value given as a limit tells only on which side of the number the result lay.

By IC90 is commonly meant the point of the concentration-response curve where the effect stands at 90%.

Data set [1] relates to panel of PDAC, SCLC, and PC cancer models. The data set can be described thus: Proliferation assay (CellTiter-Glo) in panel of PDAC, SCLC and PC cancer models. Format: cell-based, human and mouse. The following applies: media with 20 μM CuCl2, 72 h. From the text:
FIG. 1A: IC50 values in a panel of human and mouse prostate cancer (PC)(cell lines CF-2, LNCaP, 22Rv1, RM-1, MyC CaP); small cell lung carcinoma (SCLC)(cell lines NCI-H1963, NCI-H146, NCI-H526); pancreatic ductal adenocarcinoma (PDAC)(CFPAC1, SW1990, HS766T, PANC0203, PANC0813, ASPC1, HPAFII, PATU8902, PANC0327, PANC1, YAPC, L36PL, XWR200, HUPT4, A13A, SUIT2, DAN-G, BxPC3, HPAC, PSN1, SU8686, KP4662, MIAPACA2, PATU8988T); and leukemia (cell lines KG-1, TF-1, Jurkat, MOLT-4, p185-R, MV4-11) models treated with HCT13+Cu(II) (20 μM) for 72 h measured by CellTiterGlo. […] (mean±SD, n=2, one-way ANOVA corrected for multiple comparisons by Bonferroni adjustment, * P<0.05; **P<0.01; ***P<0.001).
Serum copper levels are elevated (>20 μM) in individuals with solid tumor types such as pancreatic ductal adenocarcinoma (PDAC), small cell lung carcinoma (SCLC), and prostate cancer (PC). (Refs. 43-48). These cancers rely upon elevated copper levels to sustain growth, making this transition metal a viable target for therapeutic modulation. (Ref 34). […]
Proliferation assay: Cells were plated in 384-well plates (500 cells/well for adherent cell lines in 30 μl volume). […] Following 72 h incubation, ATP content was measured using CellTiter-Glo reagent according to manufacturer's instructions (Promega, CellTiter-Glo Luminescent Cell Viability Assay), and analyzed by SpectraMax luminometer (Molecular Devices). […]
In general terms: Cellular ATP, detected with luciferase, serves as a proxy for viable cell number.

Another data set has as its system MIAPACA-2 cells. The data set can be described thus: Nucleotide pool measurement by LC-MS/MS-MRM. The following applies: 25 nM HCT-13 + Cu(II), 48 hours. Format: cell-based, human. Here is the method:
FIGS. 4A-4G show the chemical genomics screen identifying the replication stress response pathway as an actionable co-dependency of HCT13-treated cells. FIG. 4A: experimental design of a synthetic lethality screen using a library of protein kinase inhibitors against HCT13-treated cells in the presence of Cu(II) (20 μM). FIG. 4B: radar plot of screen results. FIG. 4C: z-score values for kinase inhibitors within the DNA damage response/replication stress response (DDR/RSR) pathway module. FIG. 4D: representative immunoblot of replication stress and cell death biomarkers in MIAPACA2 PDAC cells treated with HCT13 (10 nM)+Cu(II) (20 μM). […]
These observations are indicative of DDR/RSR pathway activation, which was hypothesized to arise from nucleotide insufficiency and/or, given the ability of copper to generate ROS, from ROS-mediated DNA damage. […] To test the former hypothesis, nucleotide levels were measured in treated and non-treated cells using liquid chromatography-tandem mass spectrometry with multiple reaction monitoring (LC-MS/MS-MRM) as previously described by Le et al, Nature Communications 2017, 8(1):1-14. […] These findings indicate that HCT-13 preferentially decreases the dGTP and rGTP pools, potentially via oxidative processes as guanine is the most readily oxidized nucleobase. […]

A short description of data set [2]: HCT-13 stock solution (solubilization). Format: physicochemical. The following applies: aqueous with cosolvent or surfactant or cyclodextrin; aqueous 40% captisol with 1% DMSO, heating 50° C., sonication 15 minutes; read-out: concentration solubilized. Here is the method:
HCT-13 stock solution. HCT-13 was solubilized up to a concentration of 20 mg/mL in an aqueous solution of 40% captisol with 1% DMSO with the aid of heating at 50° C. and sonication for 15 minutes.

On to `CN(C)C(=S)N/N=C/c1nccc2cc(F)ccc12` (mixture of isomers) [HCT13, (E)-2-((6-Fluoroisoquinolin-1-yl)methylene)-N,N-dimethylhydrazine-1-carbothioamide and (Z)-2-((6-Fluoroisoquinolin-1-yl)methylene)-N,N-dimethylhydrazine-1-carbothioamide], for which the “+Cu IC90 range across panel” value in data set [1] is “nanomolar”. In addition, the IC90 in data set [1] (read-out: +Cu IC90 range across panel) was in the range of 0.001 to 0.2 µM. The “dGTP and rGTP pools” value with MIAPACA-2 cells is “decreased”. For the same molecule, in data set [2], the solubility at 15 min was no more than 20 mg/mL.

These data come from patent publication US12528774B2, “Thiosemicarbazone compounds and uses thereof” (The Regents of the University of California, priority 2019, dated 2026).
